pKi: −log10 of the molar value.

By pKi is commonly meant the negative decadic logarithm of the Ki, by convention in mol/L.

This test addresses T1, human α2-GABAA receptor (BZD site, membrane protein of HEK293 cells) (Homo sapiens, UniProt P18507+P47869).
T1 construct: expressed in transfected cells
Put plainly: Radioligand competitive binding assay (3H-flunitrazepam) at the BZD site of the α2-GABAA receptor. The settings on record: competition with 1 nM 3H-flunitrazepam; Ki calculated from IC50; read-out: α2 Ki.
As to `CCn1cnc2c(-c3ccc(F)c(-c4cc5oc(=O)n(C)c5cc4OC)c3)cnnc21` [Example 87, 6-(5-(7-Ethyl-7H-imidazo[4,5-c]pyridazin-4-yl)-2-fluorophenyl)-5-methoxy-3-methylbenzo[d]oxazol-2(3H)-one], the pKi was 8.47.

`CCn1cnc2c(-c3ccc(F)c(-c4cc5c(cc4OC)N(C)C(=O)C5)c3)cnnc21` [Example 161, 5-(5-(7-Ethyl-7H-imidazo[4,5-c]pyridazin-4-yl)-2-fluorophenyl)-6-methoxy-1-methyldihydro-2-one]: the negative logarithm of the Ki (pKi) was 8.06. In the case of `CCn1cnc2c(-c3ccc(F)c(-c4cc5c(cc4OC)N(C)C(=O)CO5)c3)cnnc21` [Example 42, 7-(5-(7-Ethyl-7H-imidazo[4,5-c]pyridazin-4-yl)-2-fluorophenyl)-6-methoxy-4-methyl-2H-benzo[b][1,4]oxazin-3(4H)-one], the pKi was 8.53.

With `CCN1C(=O)COc2cc(-c3cc(-c4cnnc5c4ncn5CC)ccc3F)c(OC)cc21` [Example 31, 4-Ethyl-7-(5-(7-ethyl-7H-imidazo[4,5-c]pyridazin-4-yl)-2-fluorophenyl)-6-methoxy-2H-benzo[b][1,4]oxazin-3(4H)-one], the pKi was 8.16. As to `COc1cc2c(cc1-c1cc(-c3cnnc4c3ncn4C(C)C)ccc1F)OCC(=O)N2C` [Example 36, 7-(2-Fluoro-5-(7-isopropyl-7H-imidazo[4,5-c]pyridazin-4-yl)phenyl)-6-methoxy-4-methyl-2H-benzo[b][1,4]oxazin-3(4H)-one], the pKi is 8.24.

Source of the values: patent publication US20260159519A1, “IMIDAZOPYRIDAZINE SUBSTITUTED BENZENE RING DERIVATIVE, PREPARATION METHOD, PHARMACEUTICAL COMPOSITION AND USE” (SHANGHAI SIMR BIOTECHNOLOGY CO., LTD., priority 2022, published 2026).
